Patent US12661370B2, “Amino acid salts of nicotinic acid ribosides as anti-aging agents” (Jumpstart Fertility Pty Ltd, priority 2018, dated 2026)

System: COV434 cells
Assay: NAD cell assay (NAD cycling method)
Format: cell-based
Conditions: cellular NAD level, 200 uM for 4 hr, normalised to protein, mole per mole comparison with NaR parent
Description: NAD levels were assayed based on the NAD cycling method of Zhu and Rand, PLoS One (2012), herein incorporated by reference. COV434 cells were maintained in 6 well plates and treated with the indicated compounds at a concentration of 200 uM for 4 hr. Media was removed, plates were washed in cold PBS and cells were scraped down in NAD extraction buffer containing 10 mM nicotinamide, 50 mM Tris HCl, 0.1% Triton X-100. Cells were homogenised by sonication for 5 seconds, and samples were centrifuged at 7,000 g for 5 min at 4 degrees. Aliquots were taken for later protein assay, and samples were then passed through 10 kDa amicon filters at 14,000 g, 30 min at 4 degrees to remove proteins from the sample. Each sample was measured in technical triplicate, with 25 μL sample added to 100 μL ADH cycling mix (0.2 mg/ml alcohol dehydrogenase enzyme, 2% ethanol, 100 mM Tris pH 8.5). Samples were allowed to cycle for 10 min at room temperature, followed by 50 μL addition of an MTT/PMS solution (0.1 mM phenazine methosulfate, 0.8 mM 3(4,5-Dimethylthiazol-2-yl)-2,5-diphenyltetrazolium bromide), 100 mM Tris-HCl pH 8.5). Plates were then incubated for 15 min and absorbance was measured at 570 nm. NAD concentrations were extrapolated from a standard curve, and normalised to protein concentrations determined by BCA protein assay.
The adjusted fold increase is obtained through a direct comparison on a mole per mole basis between the compared salt and its parent counterpart. In other words, the instant compounds derived from NaR parent molecule will only have their NAD activity level measured against NaR based on the same amount (mole) of salt tested in the cell. For example, the fold increase of compound I-002 is based on the NAD activity observed in a direct comparison for the same amount of mole in the cell and that of the NaR parent. Similarly, the fold increase of i-003 is based on the direct comparison with NaR.

Compound: O=C([O-])c1ccc[n+]([C@@H]2O[C@H](CO)[C@@H](O)[C@H]2O)c1 [NaR, reference compound]
- Fold increase adjusted for MW (compared to parent molecule): 1.0 fold

Compound: (2S,3S)-2-Ammonio-3-methylpentanoate compound with 1-((2R,3R,4S,5R)-3,4-dihydroxy-5-(hydroxymethyl)tetrahydrofuran-2-yl)pyridine-1-ium-3-carboxylate (1:1) [Compound I-002]
- Fold increase adjusted for MW (compared to parent molecule): 1.34 fold

Compound: (S)-2-Ammonio-3-(1H-indol-3-yl)propanoate compound with 1-((2R,3R,4S,5R)-3,4-dihydroxy-5-(hydroxymethyl)tetrahydrofuran-2-yl)pyridine-1-ium-3-carboxylate (1:1) [Compound I-003]
- Fold increase adjusted for MW (compared to parent molecule): 1.76 fold
